Data on one compound can be found in ChEMBL document CHEMBL5678818, “Discovery of potent SOS1 inhibitors that block RAS activation via disruption of the RAS-SOS1 interaction” (Proc Natl Acad Sci U S A, 2019).

Structures are written as SMILES.

The target in test [1] is Serine/threonine-protein kinase 32B (Homo sapiens) (UniProt Q9NY57). Description: Inhibition of YANK2 (unknown origin) assessed as residual activity at 100 nM by KINOMEscan analysis relative to control.
Test [2] has as its system Mast/stem cell growth factor receptor Kit (Homo sapiens), P10721 [D816H]. Description: Inhibition of KIT D816H mutant (unknown origin) assessed as residual activity at 100 nM by KINOMEscan analysis relative to control.
Test [3] has as its target Ribosomal protein S6 kinase alpha-3 (Homo sapiens) (UniProt P51812). The experiment in a line: Inhibition of C-terminal RSK2 kinetic domain 2 (unknown origin) assessed as residual activity at 100 nM by KINOMEscan analysis relative to control.
Test [4] concerns the target T1, Serine/threonine-protein kinase Nek2 (Homo sapiens) (UniProt P51955).
T1 sequence (whole entry): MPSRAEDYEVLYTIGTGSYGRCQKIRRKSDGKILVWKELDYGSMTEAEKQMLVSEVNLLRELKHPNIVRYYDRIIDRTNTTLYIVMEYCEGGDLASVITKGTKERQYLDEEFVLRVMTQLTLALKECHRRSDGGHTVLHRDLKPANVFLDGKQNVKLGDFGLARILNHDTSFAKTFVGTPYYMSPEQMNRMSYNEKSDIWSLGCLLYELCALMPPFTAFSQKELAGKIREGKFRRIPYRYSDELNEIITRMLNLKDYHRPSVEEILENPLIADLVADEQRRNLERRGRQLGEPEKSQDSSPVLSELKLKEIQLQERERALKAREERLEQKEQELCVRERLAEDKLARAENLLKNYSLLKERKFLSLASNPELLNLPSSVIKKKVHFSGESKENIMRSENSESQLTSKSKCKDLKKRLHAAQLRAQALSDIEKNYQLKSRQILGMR
Description: Inhibition of NEK2 (unknown origin) assessed as residual activity at 100 nM by KINOMEscan analysis relative to control.

In test [5] the target is T2, Ephrin type-B receptor 3 (Homo sapiens) (UniProt P54753).
T2 sequence (whole entry): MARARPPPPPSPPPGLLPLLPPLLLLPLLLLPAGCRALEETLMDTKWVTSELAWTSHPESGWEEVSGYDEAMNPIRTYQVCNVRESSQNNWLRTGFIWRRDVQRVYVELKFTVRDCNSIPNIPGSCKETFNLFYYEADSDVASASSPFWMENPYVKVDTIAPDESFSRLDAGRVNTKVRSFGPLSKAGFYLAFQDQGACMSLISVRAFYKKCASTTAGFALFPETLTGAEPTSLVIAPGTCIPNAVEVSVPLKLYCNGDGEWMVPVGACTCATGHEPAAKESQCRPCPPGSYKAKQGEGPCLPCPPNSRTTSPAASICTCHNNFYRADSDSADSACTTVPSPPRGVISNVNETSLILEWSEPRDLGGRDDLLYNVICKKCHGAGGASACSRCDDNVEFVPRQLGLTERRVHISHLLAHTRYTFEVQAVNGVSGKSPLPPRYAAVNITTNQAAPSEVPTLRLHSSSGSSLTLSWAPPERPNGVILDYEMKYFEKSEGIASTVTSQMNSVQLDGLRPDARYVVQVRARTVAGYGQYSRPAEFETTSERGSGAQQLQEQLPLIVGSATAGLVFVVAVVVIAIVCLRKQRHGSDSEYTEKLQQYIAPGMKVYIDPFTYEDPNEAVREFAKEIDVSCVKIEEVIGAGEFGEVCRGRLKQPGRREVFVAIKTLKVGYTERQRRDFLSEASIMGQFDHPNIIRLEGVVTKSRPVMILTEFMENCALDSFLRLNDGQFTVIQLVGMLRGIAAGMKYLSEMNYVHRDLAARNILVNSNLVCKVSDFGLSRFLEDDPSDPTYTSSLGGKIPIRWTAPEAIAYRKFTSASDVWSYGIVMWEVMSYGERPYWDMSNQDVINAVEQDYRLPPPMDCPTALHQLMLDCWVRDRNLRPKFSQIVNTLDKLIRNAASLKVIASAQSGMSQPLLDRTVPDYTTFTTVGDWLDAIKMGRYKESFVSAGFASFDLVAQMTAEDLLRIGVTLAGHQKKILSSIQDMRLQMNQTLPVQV
The experiment in a line: Inhibition of EPHB3 (unknown origin) assessed as residual activity at 100 nM by KINOMEscan analysis relative to control.

The species named for a further test is Homo sapiens. Description: Inhibition of N-terminal GST-tagged recombinant human SOS1 H905M mutant (564 to 1049 residues) expressed in Escherichia coli assessed as reduction in KRAS G12C mutant activation at 10 uM by HTRF analysis relative to control.
The target in test [6] is Cyclin-dependent kinase 3 (Homo sapiens) (UniProt Q00526). The experiment in a line: Inhibition of CDK3 (unknown origin) assessed as residual activity at 100 nM by KINOMEscan analysis relative to control.
For test [7], the system named is Epidermal growth factor receptor (Homo sapiens), P00533 [L858R,T790M]. Description: Inhibition of EGFR L858R/T790M mutant (unknown origin) assessed as residual activity at 100 nM by KINOMEscan analysis relative to control.
For test [8], the target named is Cyclin-dependent kinase 11B (Homo sapiens) (UniProt P21127). Description: Inhibition of CDK11 (unknown origin) assessed as residual activity at 100 nM by KINOMEscan analysis relative to control.
Test [9] has as its target Serine/threonine-protein kinase pim-2 (Homo sapiens) (UniProt Q9P1W9). Description: Inhibition of PIM2 (unknown origin) assessed as residual activity at 100 nM by KINOMEscan analysis relative to control.
Test [10] has as its target LIM domain kinase 1 (Homo sapiens) (UniProt P53667). Description: Inhibition of LIMK1 (unknown origin) assessed as residual activity at 100 nM by KINOMEscan analysis relative to control.

Cyclin-dependent kinase 11B (Homo sapiens), sequence (P21127 whole entry): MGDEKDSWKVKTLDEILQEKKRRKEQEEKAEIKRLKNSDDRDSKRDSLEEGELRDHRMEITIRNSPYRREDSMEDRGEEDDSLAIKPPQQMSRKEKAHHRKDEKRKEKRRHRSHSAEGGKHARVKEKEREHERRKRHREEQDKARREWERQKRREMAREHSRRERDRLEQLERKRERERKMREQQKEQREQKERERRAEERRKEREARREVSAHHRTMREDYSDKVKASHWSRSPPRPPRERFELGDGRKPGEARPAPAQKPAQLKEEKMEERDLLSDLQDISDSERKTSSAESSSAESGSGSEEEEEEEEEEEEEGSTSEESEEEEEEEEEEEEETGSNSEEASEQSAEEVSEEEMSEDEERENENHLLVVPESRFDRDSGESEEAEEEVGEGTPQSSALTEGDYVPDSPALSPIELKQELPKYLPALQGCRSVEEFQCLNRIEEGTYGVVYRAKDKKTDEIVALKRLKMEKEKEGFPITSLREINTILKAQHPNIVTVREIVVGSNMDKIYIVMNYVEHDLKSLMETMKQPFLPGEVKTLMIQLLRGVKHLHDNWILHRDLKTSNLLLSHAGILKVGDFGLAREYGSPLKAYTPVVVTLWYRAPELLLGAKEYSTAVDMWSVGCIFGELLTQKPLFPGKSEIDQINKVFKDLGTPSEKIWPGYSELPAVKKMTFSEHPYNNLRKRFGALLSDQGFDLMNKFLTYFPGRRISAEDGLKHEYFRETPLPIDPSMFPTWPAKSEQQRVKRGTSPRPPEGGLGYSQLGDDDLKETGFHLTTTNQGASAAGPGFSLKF
Mast/stem cell growth factor receptor Kit (Homo sapiens), P10721 [D816H], sequence (P10721 whole entry D816H, the tested form may be a part): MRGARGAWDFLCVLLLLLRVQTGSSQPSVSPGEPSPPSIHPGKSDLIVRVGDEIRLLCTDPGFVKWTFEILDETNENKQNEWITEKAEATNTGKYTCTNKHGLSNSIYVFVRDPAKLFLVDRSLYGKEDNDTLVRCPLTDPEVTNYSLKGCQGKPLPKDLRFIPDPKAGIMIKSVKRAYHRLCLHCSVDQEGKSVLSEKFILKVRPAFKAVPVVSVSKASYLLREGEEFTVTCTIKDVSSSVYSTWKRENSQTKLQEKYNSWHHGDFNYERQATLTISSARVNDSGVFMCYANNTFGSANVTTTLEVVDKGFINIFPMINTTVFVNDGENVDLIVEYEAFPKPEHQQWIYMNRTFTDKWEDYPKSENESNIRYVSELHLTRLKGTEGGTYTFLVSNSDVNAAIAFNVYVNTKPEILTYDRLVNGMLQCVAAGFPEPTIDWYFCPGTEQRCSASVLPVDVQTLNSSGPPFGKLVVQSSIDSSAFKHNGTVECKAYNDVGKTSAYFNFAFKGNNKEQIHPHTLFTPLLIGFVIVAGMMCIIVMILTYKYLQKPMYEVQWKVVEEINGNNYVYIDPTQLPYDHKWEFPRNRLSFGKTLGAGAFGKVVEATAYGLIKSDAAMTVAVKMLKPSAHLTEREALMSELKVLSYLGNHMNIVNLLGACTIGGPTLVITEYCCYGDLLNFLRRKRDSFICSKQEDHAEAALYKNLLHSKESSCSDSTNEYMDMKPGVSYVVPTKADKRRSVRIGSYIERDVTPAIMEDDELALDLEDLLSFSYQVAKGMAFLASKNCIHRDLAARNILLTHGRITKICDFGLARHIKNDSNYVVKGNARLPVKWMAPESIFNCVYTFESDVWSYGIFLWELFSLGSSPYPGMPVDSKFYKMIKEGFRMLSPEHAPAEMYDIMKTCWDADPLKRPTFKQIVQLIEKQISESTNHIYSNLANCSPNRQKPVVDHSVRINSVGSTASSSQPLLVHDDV
Ribosomal protein S6 kinase alpha-3 (Homo sapiens), sequence (P51812 whole entry, the tested form may be a part): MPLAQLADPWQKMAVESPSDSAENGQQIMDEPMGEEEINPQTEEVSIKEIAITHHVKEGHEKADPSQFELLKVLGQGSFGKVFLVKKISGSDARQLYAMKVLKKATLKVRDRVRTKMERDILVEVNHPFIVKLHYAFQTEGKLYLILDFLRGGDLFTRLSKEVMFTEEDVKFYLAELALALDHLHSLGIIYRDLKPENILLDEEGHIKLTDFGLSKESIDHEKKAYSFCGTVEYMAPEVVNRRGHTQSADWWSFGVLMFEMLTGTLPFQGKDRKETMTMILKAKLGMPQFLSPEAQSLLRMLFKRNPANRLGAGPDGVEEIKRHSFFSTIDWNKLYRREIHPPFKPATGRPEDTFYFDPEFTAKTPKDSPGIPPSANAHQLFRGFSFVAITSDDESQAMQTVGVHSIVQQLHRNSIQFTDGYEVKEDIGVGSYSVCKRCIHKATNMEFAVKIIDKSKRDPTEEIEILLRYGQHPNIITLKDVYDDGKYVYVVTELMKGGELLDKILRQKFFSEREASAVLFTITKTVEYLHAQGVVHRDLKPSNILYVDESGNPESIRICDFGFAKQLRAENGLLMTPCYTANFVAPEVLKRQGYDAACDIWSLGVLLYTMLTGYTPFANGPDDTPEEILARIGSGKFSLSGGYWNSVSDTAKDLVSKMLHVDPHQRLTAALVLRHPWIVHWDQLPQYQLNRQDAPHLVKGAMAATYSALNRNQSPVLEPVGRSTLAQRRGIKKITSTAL
LIM domain kinase 1 (Homo sapiens), sequence (P53667 whole entry, looked up, the tested form may be a part): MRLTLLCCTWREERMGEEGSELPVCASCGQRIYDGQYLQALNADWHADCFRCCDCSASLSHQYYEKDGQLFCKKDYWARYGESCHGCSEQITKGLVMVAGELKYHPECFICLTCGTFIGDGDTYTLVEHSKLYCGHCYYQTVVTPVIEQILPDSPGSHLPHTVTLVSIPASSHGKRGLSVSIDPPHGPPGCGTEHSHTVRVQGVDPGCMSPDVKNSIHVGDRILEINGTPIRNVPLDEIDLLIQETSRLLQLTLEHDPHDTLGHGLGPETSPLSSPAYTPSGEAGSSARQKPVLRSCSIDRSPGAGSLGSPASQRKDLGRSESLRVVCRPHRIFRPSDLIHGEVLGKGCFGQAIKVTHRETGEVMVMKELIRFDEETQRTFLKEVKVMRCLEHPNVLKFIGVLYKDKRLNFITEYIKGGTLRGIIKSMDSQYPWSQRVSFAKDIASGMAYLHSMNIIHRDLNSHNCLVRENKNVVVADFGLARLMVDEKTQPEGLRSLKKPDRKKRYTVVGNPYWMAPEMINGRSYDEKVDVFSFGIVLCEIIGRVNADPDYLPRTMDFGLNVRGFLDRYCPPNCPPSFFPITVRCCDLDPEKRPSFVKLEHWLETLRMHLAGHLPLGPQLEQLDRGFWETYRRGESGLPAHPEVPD
Serine/threonine-protein kinase 32B (Homo sapiens), sequence (Q9NY57 whole entry): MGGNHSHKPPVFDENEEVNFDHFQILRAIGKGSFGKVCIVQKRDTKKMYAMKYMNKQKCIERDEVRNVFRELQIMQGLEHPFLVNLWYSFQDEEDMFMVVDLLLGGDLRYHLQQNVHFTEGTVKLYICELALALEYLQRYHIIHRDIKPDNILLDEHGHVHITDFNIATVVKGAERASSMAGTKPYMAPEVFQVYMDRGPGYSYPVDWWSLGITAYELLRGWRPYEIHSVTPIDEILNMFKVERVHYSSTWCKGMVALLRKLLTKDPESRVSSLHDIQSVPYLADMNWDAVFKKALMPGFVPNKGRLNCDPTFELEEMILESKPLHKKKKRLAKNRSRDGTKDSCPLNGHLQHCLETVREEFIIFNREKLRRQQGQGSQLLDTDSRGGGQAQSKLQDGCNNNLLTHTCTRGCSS
Serine/threonine-protein kinase pim-2 (Homo sapiens), sequence (Q9P1W9 whole entry, looked up, the tested form may be a part): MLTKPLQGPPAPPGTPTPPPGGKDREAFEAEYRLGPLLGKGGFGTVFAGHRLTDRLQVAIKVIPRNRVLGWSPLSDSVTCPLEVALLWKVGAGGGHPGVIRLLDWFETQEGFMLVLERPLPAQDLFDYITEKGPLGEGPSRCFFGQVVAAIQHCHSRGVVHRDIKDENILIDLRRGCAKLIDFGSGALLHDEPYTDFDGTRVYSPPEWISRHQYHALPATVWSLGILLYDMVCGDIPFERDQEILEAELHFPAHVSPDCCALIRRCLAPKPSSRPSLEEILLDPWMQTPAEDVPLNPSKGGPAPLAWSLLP
Cyclin-dependent kinase 3 (Homo sapiens), sequence (Q00526 whole entry, looked up): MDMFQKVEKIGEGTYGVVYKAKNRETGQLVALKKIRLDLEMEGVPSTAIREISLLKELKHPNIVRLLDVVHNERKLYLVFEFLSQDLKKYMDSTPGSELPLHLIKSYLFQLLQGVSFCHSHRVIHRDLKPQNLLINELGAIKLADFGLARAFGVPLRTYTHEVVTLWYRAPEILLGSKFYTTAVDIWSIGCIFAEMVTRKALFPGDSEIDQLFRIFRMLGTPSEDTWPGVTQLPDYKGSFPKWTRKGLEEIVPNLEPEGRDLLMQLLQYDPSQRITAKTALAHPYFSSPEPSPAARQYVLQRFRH

On to `COc1cc2ncnc(N[C@H](C)c3cccc4ccccc34)c2cc1OC`, for which the Activity in [1] is 84%; in [2], 89%; in [3], 92%; in test [4] it was 100%; in test [5], 71%; in test [6], 95%. Moreover, the Activity in [7] is 85%; in test [8], 100%; in test [9], 73%; in test [10], 81%. Also, the inhibition (as a rule, the relative decrease from the control value, in per cent) in the test filed under Homo sapiens was determined as 39%.
